Holding throughout (assay type): biochemical
In assay [1] the target is T1, Coprinus cinereus peroxidase (CiP) (Coprinopsis cinerea, UniProt P28314).
T1 construct: made in house
T1 sequence (P28314 21-363): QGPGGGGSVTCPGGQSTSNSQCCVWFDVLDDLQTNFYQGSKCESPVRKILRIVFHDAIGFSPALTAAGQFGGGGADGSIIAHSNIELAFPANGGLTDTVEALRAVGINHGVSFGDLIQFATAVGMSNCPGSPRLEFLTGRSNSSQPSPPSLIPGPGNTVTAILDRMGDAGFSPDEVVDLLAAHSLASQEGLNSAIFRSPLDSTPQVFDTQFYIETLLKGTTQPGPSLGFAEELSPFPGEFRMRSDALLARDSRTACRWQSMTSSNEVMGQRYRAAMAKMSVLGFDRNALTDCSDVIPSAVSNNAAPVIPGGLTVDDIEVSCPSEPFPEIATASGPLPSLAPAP
Put plainly: Initial bleaching of Direct Blue 1 with Coprinus cinereus peroxidase and enhancers. To be noted: 5 μM enhancer, 20 μM H2O2, 30° C. Here is the method:
A Coprinus cinereus peroxidase (CiP), obtained as described in WO 9412621 was used.
Dilutions of CiP were made in a solution of 0.15 gram/l of Triton X-405.
(§1) The bleaching rate of Direct Blue 1 (DB1) by purified CiP was determined using the following conditions: […]
(§2) Reagents were mixed in a thermostated cuvette at 30° C. and the bleaching was started by addition of hydrogen peroxide. The bleaching was detected spectrophotometrically at 610 nm, which is the wavelength of the absorption peak of DB1. Bleaching was followed for 1 minute, and the initial reduction in absorbance, --ΔmAbs/minute, was determined.

The target of a further assay is T2, Trametes villosa laccase (Trametes villosa, UniProt Q99044).
T2 construct: made in house; host or cells: Trametes villosa CBS 678.70 (native producer), purified from culture broth
T2 sequence (Q99044 22-520): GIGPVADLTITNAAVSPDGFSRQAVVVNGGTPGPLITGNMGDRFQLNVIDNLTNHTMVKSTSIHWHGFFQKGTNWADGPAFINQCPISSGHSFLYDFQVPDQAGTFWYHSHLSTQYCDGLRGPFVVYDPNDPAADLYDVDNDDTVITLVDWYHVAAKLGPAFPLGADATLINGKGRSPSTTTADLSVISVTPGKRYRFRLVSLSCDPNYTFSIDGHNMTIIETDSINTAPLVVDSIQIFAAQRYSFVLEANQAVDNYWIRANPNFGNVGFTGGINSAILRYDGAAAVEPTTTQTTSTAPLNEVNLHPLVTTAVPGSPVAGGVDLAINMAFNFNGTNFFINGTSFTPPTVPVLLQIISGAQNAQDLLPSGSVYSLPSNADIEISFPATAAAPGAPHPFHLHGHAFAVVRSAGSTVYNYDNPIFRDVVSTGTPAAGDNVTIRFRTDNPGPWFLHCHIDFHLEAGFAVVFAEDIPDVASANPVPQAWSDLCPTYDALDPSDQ
Put plainly: Bleaching of Direct Blue 1 with Trametes villosa laccase with and without enhancing agents. Conditions: 10 μM enhancer, 30° C. Here is the method: Laccase obtained from Trametes villosa: 800 ml culture broth of Trametes villosa, CBS 678.70, was filtered with filter aid to give a clear filtrate, which was concentrated and washed by ultrafiltration on a membrane with a cut-off of 6-8 kDa. One ml samples of concentrated preparation was applied onto a Q-Sepharose HP column (Pharmacia, Sweden) equilibrated with 0.1 M fosfate pH 7, and the laccase was eluted with a flat NaCl gradient around 0.25 M. Fractions with laccase activity from 10 runs were pooled and concentrated by ultrafiltration to an activity of 500 LACU/ml.
The following conditions were used: […]
Reagents were mixed in a 1 cm thermostated cuvette at 30° C. and the bleaching was started by addition of enzyme.
The bleaching was detected spectrophotometrically at 610 nm, which is the absorption peak of DB1. After 5 sec. bleaching was followed for 4 minutes.
Bleaching of Direct Blue 1 with Trametes villosa laccase, obtained as described above, at pH 5.5 (1.6 mg/l) and pH 7.0 (16 mg/l): […]

The target in assay [2] is T3, Coprinus cinereus laccase (Coprinopsis cinerea, UniProt Q9Y780).
T3 sequence (Q9Y780 19-539): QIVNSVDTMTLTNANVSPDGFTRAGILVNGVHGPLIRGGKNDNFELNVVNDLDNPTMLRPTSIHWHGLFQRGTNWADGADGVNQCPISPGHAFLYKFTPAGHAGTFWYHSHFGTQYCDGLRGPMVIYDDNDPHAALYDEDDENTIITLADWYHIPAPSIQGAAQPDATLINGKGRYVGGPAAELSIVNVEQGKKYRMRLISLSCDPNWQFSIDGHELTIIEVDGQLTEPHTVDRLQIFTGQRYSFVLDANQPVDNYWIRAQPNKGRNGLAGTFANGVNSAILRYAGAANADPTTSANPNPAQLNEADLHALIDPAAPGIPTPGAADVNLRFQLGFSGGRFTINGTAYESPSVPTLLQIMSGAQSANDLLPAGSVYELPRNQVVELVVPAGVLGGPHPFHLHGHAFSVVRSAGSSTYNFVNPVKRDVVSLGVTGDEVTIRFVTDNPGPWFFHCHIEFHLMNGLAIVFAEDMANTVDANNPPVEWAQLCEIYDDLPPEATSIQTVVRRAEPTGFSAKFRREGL
Put plainly: Bleaching of Direct Blue 1 using Coprinus cinereus laccase with/without enhancing agents at pH 5.5-8.5. Conditions: C. cinereus laccase 1 mg/l, 10 μM enhancing agent, 30° C. As to the method: Bleaching of the dye Direct Blue 1 at various pH values was conducted using Coprinus cinereus laccase and one of the following enhancing agents:
The laccase was obtained in the following way: Coprinus cinereus (IFO 30116--freely available to the public from Institute of Fermentation, Osaka (IFO) under the indicated deposit number) was inoculated from a PDA agar slant (PDA: 39 g/l potato dextrose agar) into a 100 ml shake flask containing medium A (Medium A is described in Example 3). The culture was cultivated for 6 days at 26° C. and 100 rpm. A 10-liter fermentor containing medium A was inoculated with the 100 ml culture broth. The fermentation ran for 6 days at 26° C. and 100 rpm. The culture broth was filtrated and concentrated by ultrafiltration. Further purification was carried out using hydrophobic interaction chromatography followed by anionic exchange chromatography. This process resultated in a preparation with a laccase activity of 3.6 LACU/ml. The estimated purity was >80% on a protein basis.
The bleaching rate of DB1 was determined using the owing conditions: […]
(§3) Reagents were mixed in a 1 ml thermostated cuvette at 30° C. and the bleaching was started by addition of the laccase.
The bleaching was followed spectrophotometrically at 610 nm, which is the wavelength of the absorption peak of DB1 with readings every 5 sec. for a period of 5 minutes. The initial bleaching rate was determined from the first linear part of the absorbance curve.

The target of assay [3] is T3, Coprinus cinereus laccase. Put plainly: Bleaching of gradually added Acid Blue 45 with Coprinus cinereus laccase with and without enhancing agent. To be noted: phosphate/borate buffer pH 10; 35° C.; laccase 10 mg/l; acetosyringone 10 μM. As to the method: To simulate such a process, however, a magnetically stirred beaker was used as the reaction vessel and dye was added gradually from a stock solution (using a Metrohm 725 dosimat). The solution was monitored spectrophotometrically using a Zeiss multichannel spectrometer (MCS) equipped with a fibre-optics immersion probe.
Stock solutions of acetosyringone was prepared in a suitable water/ethanol mixture. Stock solutions of the anthraquinone dye Acid Blue 45 were made with water.
The laccase was recovered from a 10-liter fermentation of Coprinus cinereus (IFO 30116) as described in Example 4.
The following conditions were used in the experiment:
Medium and pH: […]/50 mM phosphate/borate buffer at pH 10
Acetosyringone (when applicable): 10 μM
Dye addition program: linear addition at a rate of ca 0.34 bs/40 min, referring to the absorbance of Acid Blue 45 at its maximum absorbance wavelength (590 nm for Acid Blue 45).
The following symbols are used: (I): Only dye addition; (II): Dye addition in the presence of Laccase; (III): Dye addition in the presence of Laccase+acetosyringone.

Assay [4] deals with laccase obtained from Coprinus comatus. Put plainly: Bleaching of Direct Blue 1 using Coprinus comatus laccase and methylsyringate. Conditions: 10 μM methylsyringate, 30° C. As to the method:
(§4) Bleaching of the dye Direct Blue 1 at various pH values was conducted using a laccase obtained from Coprinus comatus, Coprinus friesii, Coprinus plicatilis, Panaeolus papilionaceus or Psathyrella condolleana and methylsyringate.
(§5) After fermentation the culture broths were centrifugated and the supernatants were used in the tests described below.
(§6) The bleaching rate of DB1 was determined using the following conditions: […]
as §3
(§7) The bleaching was followed spectrophotometrically at 610 nm, which is the wavelength of the absorption peak of DB1, with readings every 5 sec. for a period of 5 minutes. The initial bleaching rate was determined from the first linear part of the absorbance curve.

Assay [5] relates to laccase obtained from Coprinus plicatilis. Put plainly: Bleaching of Direct Blue 1 using Coprinus plicatilis laccase and methylsyringate. To be noted: 10 μM methylsyringate, 30° C. Here is the method: as §4, §5, §6, §3, §7
For assay [6], the system named is laccase obtained from Coprinus friesii. Put plainly: Bleaching of Direct Blue 1 using Coprinus friesii laccase and methylsyringate. To be noted: 10 μM methylsyringate, 30° C. As to the method: as §4, §5, §6, §3, §7
Assay [7] addresses T1, Coprinus cinereus peroxidase (CiP). Put plainly: Initial bleaching of Chicago Sky Blue 6B (CSB) with Coprinus cinereus peroxidase and enhancers. To be noted: 5 μM enhancer, 20 μM H2O2, 30° C. Here is the method: as §1, §2
Bleaching tests were performed in exactly the same way as described in Example 2 except that instead of using DB1 Chigaco Sky Blue (CSB) (obtainable from Aldrich) was used, and the following enhancers were tested: […]

For assay [8], the system named is laccase obtained from Psathyrella condolleana. Put plainly: Bleaching of Direct Blue 1 using Psathyrella condolleana laccase and methylsyringate. To be noted: 10 μM methylsyringate, 30° C. Here is the method:
as §4, §5, §6, §3, §7

For assay [9], the system named is laccase obtained from Panaeolus papilionaceus. Put plainly: Bleaching of Direct Blue 1 using Panaeolus papilionaceus laccase and methylsyringate. To be noted: 10 μM methylsyringate, 30° C. As to the method: as §4, §5, §6, §3, §7
The mark [10] stands for this setting: pH 5.5, Trametes villosa laccase 1.6 mg/l.
Setting [11] is: pH 7.0, Trametes villosa laccase 16 mg/l.

With `COc1cc(C(C)=O)cc(OC)c1O` [acetosyringone], the “Initial Bleaching of Direct Blue 1 with CiP” value in assay [1] (pH 8.5, 0.08 mg/l CiP) is listed as 239 -ΔmAbs/minute; in assay [1] (pH 10.5, 0.16 mg/l CiP), 1 -ΔmAbs/minute. Further, the “DB1 bleaching in 4 minutes” value at Trametes villosa laccase (setting [10]) is 447 -ΔmAbs/4 min; at Trametes villosa laccase (setting [11]), 242 -ΔmAbs/4 min. In addition, the “Initial bleaching rate of DB1” value in assay [2] (pH 5.5) is given as 28 -ΔmAbs/minute; in [2] (pH 7.0), 94 -ΔmAbs/minute; in assay [2] (pH 8.5), 50 -ΔmAbs/minute. For the same compound, in assay [3], the “Bleaching effect on gradually added Acid Blue 45 (FIG. 1)” value is given as “enhanced”.
As to `COC(=O)c1cc(OC)c(O)c(OC)c1` [methylsyringate], the “Initial bleaching rate of DB1” value in [4] (C. comatus laccase 4 LACU/l, pH 5.5) is given as 33 -ΔmAbs/minute; in [4] (C. comatus laccase 4 LACU/l, pH 7.0) it was 23 -ΔmAbs/minute; in assay [4] (C. comatus laccase 20 LACU/l, pH 8.5), 2 -ΔmAbs/minute; in assay [5] (C. plicalitis laccase 4 LACU/l, pH 5.5) it was 42 -ΔmAbs/minute; in assay [5] (C. plicalitis laccase 4 LACU/l, pH 7.0) it was 39 -ΔmAbs/minute; in assay [5] (C. plicalitis laccase 20 LACU/l, pH 8.5) it was 14 -ΔmAbs/minute. Moreover, the “Initial bleaching rate of DB1” value in assay [6] (C. friesii laccase 4 LACU/l, pH 5.5) was 40 -ΔmAbs/minute; in assay [6] (C. friesii laccase 4 LACU/l, pH 7.0), 55 -ΔmAbs/minute; in assay [6] (C. friesii laccase 20 LACU/l, pH 8.5) it was 61 -ΔmAbs/minute; in [8] (Ps. condolleana laccase 4 LACU/l, pH 5.5), 45 -ΔmAbs/minute; in assay [8] (Ps. condolleana laccase 4 LACU/l, pH 7.0), 54 -ΔmAbs/minute; in assay [8] (Ps. condolleana laccase 20 LACU/l, pH 8.5), 43 -ΔmAbs/minute. In addition, the “Initial bleaching rate of DB1” value in assay [2] (pH 5.5) was 20 -ΔmAbs/minute; in assay [2] (pH 7.0), 94 -ΔmAbs/minute; in assay [2] (pH 8.5) it was 57 -ΔmAbs/minute; in assay [9] (Pan. papilionaceus laccase 4 LACU/l, pH 5.5), 16 -ΔmAbs/minute; in assay [9] (Pan. papilionaceus laccase 4 LACU/l, pH 7.0), 19 -ΔmAbs/minute; in assay [9] (Pan. papilionaceus laccase 20 LACU/l, pH 8.5), 18 -ΔmAbs/minute. In addition, the “Initial Bleaching of Direct Blue 1 with CiP” value in assay [1] (pH 8.5, 0.08 mg/l CiP) is on record as 245 -ΔmAbs/minute; in assay [1] (pH 10.5, 0.16 mg/l CiP), 8 -ΔmAbs/minute. In addition, the “Initial Bleaching of CSB with CiP” value is on record as 211 -ΔmAbs/minute in assay [7] (pH 8.5, 0.08 mg/l CiP) and 42 -ΔmAbs/minute in [7] (pH 10.5, 0.16 mg/l CiP).
For `COc1cc(C=O)cc(OC)c1O` [syringaldehyde], the “Initial Bleaching of Direct Blue 1 with CiP” value in [1] (pH 8.5, 0.08 mg/l CiP) is 151 -ΔmAbs/minute; in assay [1] (pH 10.5, 0.16 mg/l CiP), 4 -ΔmAbs/minute. For the same compound, the “DB1 bleaching in 4 minutes” value on Trametes villosa laccase (setting [10]) is 438 -ΔmAbs/4 min; at Trametes villosa laccase (setting [11]), 112 -ΔmAbs/4 min. In addition, the entries for the “Initial bleaching rate of DB1” value in [2] (pH 5.5), in assay [2] (pH 7.0) and in [2] (pH 8.5) were 29 -ΔmAbs/minute, 79 -ΔmAbs/minute and 28 -ΔmAbs/minute, respectively.

The values above are taken from patent US5912405A, “Enhancers such as acetosyringone” (Novo Nordisk A/S, priority 1994, dated 1999).
